Measured values: publication PMC6287599, “2,6-Bis(2-Benzimidazolyl)Pyridine (BBP) Is a Potent and Selective Inhibitor of Small Conductance Calcium-Activated Potassium (SK) Channels” (Frontiers in Pharmacology, 2018)

Molecular target: T1, hSK3 WT (Homo sapiens, UniProt Q9UGI6)
T1 construct: expressed in transfected cells; host or cells: HEK293 (transient, co-transfected with eGFP)
Test: Manual whole cell patch clamp, HEK293 transiently transfected with hSK3 WT
Type: cell-based
Details: BBP 1 μM, compared to positive control bicuculline methiodide 100 μM, n = 5, read-out: Inhibition of hSK3 current
Protocol: HEK293 cells were transiently co-transfected with the plasmid of interest (hBK, hSK1, hSK2, hSK3 WT, rSK3 H491N, or hIK) and eGFP using standard Lipofectamine™ 2000 (Thermo Fisher Scientific, Waltham, Massachussets, USA) transfection protocols. After transfection, cells were incubated overnight before the experiments.
Manual patch clamp experiments were performed at room temperature in the whole cell configuration with a HEKA EPC9 amplifier and the Patchmaster software (HEKA Elektronik, Ludwigshafen, Germany). All currents were elicited every 2 s using an incremental 200 ms voltage-ramp protocol starting at −80 mV and finishing at +80 mV from a holding potential of 0 mV. […] Currents were measured using the same solutions as the ones used for automated patch clamp, with symmetrical potassium concentrations and a free intracellular calcium concentration of 400 nM. […]
To assess the effect of BBP on other calcium-activated potassium channels (hBK, hSK3 WT, rSK3 H491N, and hIK), each individual current was first normalized to its cell size using membrane's capacitance (pA/pF) before statistical analysis. […] Statistical significance between saline and the effect of both BBP and the corresponding reference compound was determined for each channel using one-way ANOVA analysis. […]

inhibition at 1 µM: 92.5 ± 2.3%
SMILES: c1cc(-c2nc3ccccc3[nH]2)nc(-c2nc3ccccc3[nH]2)c1 [BBP, 2,6-Bis(2-benzimidazolyl)pyridine]
